One test deals with ovarian cancer. The note with it: clinical studies; cited from earlier work.
For the next test, the system named is lung tumorigenesis. Particulars: TLE1 transgenic mice; cited from earlier work.
The target of the next test is T1, PLA2G6 (Homo sapiens, UniProt O60733).
T1 construct: host or cells: ovarian cancer cells
T1 sequence (O60733 1-806): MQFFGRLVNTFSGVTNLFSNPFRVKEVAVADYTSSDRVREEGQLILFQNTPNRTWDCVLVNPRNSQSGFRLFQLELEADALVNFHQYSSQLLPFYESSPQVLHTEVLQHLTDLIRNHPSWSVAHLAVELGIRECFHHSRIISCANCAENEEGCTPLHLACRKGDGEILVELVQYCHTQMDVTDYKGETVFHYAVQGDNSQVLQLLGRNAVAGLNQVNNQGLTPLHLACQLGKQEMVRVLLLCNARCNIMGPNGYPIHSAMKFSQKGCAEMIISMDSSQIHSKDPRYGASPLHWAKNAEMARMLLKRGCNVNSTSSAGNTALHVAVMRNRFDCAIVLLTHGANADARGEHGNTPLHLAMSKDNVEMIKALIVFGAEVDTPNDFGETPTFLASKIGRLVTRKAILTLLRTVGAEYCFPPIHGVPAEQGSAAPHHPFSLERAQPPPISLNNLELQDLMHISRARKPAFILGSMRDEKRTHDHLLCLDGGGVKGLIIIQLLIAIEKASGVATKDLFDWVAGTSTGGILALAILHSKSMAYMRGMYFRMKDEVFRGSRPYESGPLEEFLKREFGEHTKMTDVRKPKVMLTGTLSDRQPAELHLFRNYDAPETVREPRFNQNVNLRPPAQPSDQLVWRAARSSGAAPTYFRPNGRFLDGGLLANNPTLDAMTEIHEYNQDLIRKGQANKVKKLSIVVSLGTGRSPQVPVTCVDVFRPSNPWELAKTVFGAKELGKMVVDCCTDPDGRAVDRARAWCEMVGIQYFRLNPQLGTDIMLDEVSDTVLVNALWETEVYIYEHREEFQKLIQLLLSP
Particulars: cited from earlier work.

The target in another test is T2, IMPDH2 (Homo sapiens, UniProt P12268).
T2 construct: host or cells: patients with AML and CML in blast crisis
Particulars: patients with acute myeloid leukemia and chronic myeloid leukemia in blast crisis; cited from earlier work.

For the next test, the system named is human tumor cell lines. Particulars: cited from earlier work.
Another test addresses T3, ALDH5A1 (Homo sapiens, UniProt P51649).
T3 construct: host or cells: breast ductal carcinoma models
T3 sequence (P51649 48-535): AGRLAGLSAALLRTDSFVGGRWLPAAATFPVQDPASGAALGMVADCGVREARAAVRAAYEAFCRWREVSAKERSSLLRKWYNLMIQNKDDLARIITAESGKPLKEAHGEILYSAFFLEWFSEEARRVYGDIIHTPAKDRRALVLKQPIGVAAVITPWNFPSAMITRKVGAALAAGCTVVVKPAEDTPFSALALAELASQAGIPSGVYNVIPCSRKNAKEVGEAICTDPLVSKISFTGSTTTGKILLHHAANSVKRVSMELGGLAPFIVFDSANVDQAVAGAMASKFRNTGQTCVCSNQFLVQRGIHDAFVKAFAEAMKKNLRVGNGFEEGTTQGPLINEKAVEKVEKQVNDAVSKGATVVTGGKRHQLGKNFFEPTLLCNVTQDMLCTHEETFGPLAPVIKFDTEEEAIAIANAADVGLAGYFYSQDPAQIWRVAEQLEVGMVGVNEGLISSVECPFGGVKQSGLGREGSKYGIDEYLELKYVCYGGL
Particulars: cited from earlier work.

The next test concerns CD8+ T cells. Briefly: In vitro immunogenicity: priming of CD8+ T cells with aAPCs loaded with peptide/MHC and anti-CD28, multimer staining. Type of test: cell-based, human. Particulars: for Wells positive [%]: HLA-A*02 restricted peptides, percentage of positive wells (among evaluable). The source says: In order to obtain information regarding the immunogenicity of the TUMAPs of the present invention, the inventors performed investigations using an in vitro T-cell priming assay based on repeated stimulations of CD8+ T cells with artificial antigen presenting cells (aAPCs) loaded with peptide/MHC complexes and anti-CD28 antibody.
In order to perform in vitro stimulations by artificial antigen presenting cells loaded with peptide-MHC complex (pMHC) and anti-CD28 antibody, the inventors first isolated CD8+ T cells from fresh HLA-A*02 leukopheresis products via positive selection using CD8 microbeads (Miltenyi Biotec, Bergisch-Gladbach, Germany) of healthy donors obtained from the University clinics Mannheim, Germany, after informed consent.
PBMCs and isolated CD8+ lymphocytes were incubated in T-cell medium (TCM) until use consisting of RPMI-Glutamax (Invitrogen, Karlsruhe, Germany) supplemented with 10% heat inactivated human AB serum (PAN-Biotech, Aidenbach, Germany), 100 U/ml Penicillin/100 μg/ml Streptomycin (Cambrex, Cologne, Germany), 1 mM sodium pyruvate (CC Pro, Oberdorla, Germany), 20 μg/ml Gentamycin (Cambrex). 2.5 ng/ml IL-7 (PromoCell, Heidelberg, Germany) and 10 U/ml IL-2 (Novartis Pharma, Nürnberg, Germany) were also added to the TCM at this step.
Generation of pMHC/anti-CD28 coated beads, T-cell stimulations and readout was performed in a highly defined in vitro system using four different pMHC molecules per stimulation condition and 8 different pMHC molecules per readout condition.
The purified co-stimulatory mouse IgG2a anti human CD28 Ab 9.3 (Jung et al., 1987) was chemically biotinylated using Sulfo-N-hydroxysuccinimidobiotin as recommended by the manufacturer (Perbio, Bonn, Germany). Beads used were 5.6 μm diameter streptavidin coated polystyrene particles (Bangs Laboratories, Illinois, USA).
pMHC used for positive and negative control stimulations were A*0201/MLA-001 (peptide […] (SEQ ID NO. 664) from modified Melan-A/MART-1) and A*0201/DDX5-001 ([…] from DDX5, SEQ ID NO. 665), respectively.
800.000 beads/200 μl were coated in 96-well plates in the presence of 4×12.5 ng different biotin-pMHC, washed and 600 ng biotin anti-CD28 were added subsequently in a volume of 200 μl. Stimulations were initiated in 96-well plates by co-incubating […] CD8+ T cells with 2×10^5 washed coated beads in 200 μl TCM supplemented with 5 ng/ml IL-12 (PromoCell) for 3 days at 37° C. Half of the medium was then exchanged by fresh TCM supplemented with 80 U/ml IL-2 and incubating was continued for 4 days at 37° C. This stimulation cycle was performed for a total of three times. For the pMHC multimer readout using 8 different pMHC molecules per condition, a two-dimensional combinatorial coding approach was used as previously described (Andersen et al., 2012) with minor modifications encompassing coupling to 5 different fluorochromes. Finally, multimeric analyses were performed by staining the cells with Live/dead near IR dye (Invitrogen, Karlsruhe, Germany), CD8-FITC antibody clone SK1 (BD, Heidelberg, Germany) and fluorescent pMHC multimers. For analysis, a BD LSRII SORP cytometer equipped with appropriate lasers and filters was used. Peptide specific cells were calculated as percentage of total CD8+ cells. Evaluation of multimeric analysis was done using the FlowJo software (Tree Star, Oregon, USA). In vitro priming of specific multimer+ CD8+ lymphocytes was detected by comparing to negative control stimulations.
Exemplary flow cytometry results after TUMAP-specific multimer staining for two peptides of the invention are shown in FIG. 3 together with corresponding negative controls.

For the next test, the target named is HLA-A*02:01 (Homo sapiens, UniProt P04439, D140Y/D185E/D98H/E176V/E277Q/G131W/G231S/I119V/I121R/I166T/I218V/L300P/L318F/N151K/N90K/P208A/P217A/Q86G/Q94H/R138H/R169H/T345S). Briefly: MHC binding assay (UV-ligand exchange, ELISA of stabilized MHC complexes). The note with it: MHC class I binding score; binding to HLA-A*02:01 ranged by peptide exchange yield (UV-ligand exchange, ELISA). The method, boiled down:
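Peptide-MHC complexes made by UV-ligand exchange, cleaving a UV-sensitive placeholder peptide and replacing it with the test peptide. Exchange yield measured by ELISA: streptavidin-captured monomers (diluted 100-fold, 1 h, 37 °C) detected with HRP anti-β2m and TMB, absorbance at 450 nm.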
(An ELISA detects its analyte on a solid surface through an enzyme-linked reagent.)

The target in another test is ATR (Homo sapiens, UniProt Q13535). The note with it: pancreatic cancer cells in vitro, pancreatic tumor xenografts in vivo; cited from earlier work.
In the next test the test system is UBE2V1. The note with it: cited from earlier work.

T2 sequence (P12268 2-514 limits assumed): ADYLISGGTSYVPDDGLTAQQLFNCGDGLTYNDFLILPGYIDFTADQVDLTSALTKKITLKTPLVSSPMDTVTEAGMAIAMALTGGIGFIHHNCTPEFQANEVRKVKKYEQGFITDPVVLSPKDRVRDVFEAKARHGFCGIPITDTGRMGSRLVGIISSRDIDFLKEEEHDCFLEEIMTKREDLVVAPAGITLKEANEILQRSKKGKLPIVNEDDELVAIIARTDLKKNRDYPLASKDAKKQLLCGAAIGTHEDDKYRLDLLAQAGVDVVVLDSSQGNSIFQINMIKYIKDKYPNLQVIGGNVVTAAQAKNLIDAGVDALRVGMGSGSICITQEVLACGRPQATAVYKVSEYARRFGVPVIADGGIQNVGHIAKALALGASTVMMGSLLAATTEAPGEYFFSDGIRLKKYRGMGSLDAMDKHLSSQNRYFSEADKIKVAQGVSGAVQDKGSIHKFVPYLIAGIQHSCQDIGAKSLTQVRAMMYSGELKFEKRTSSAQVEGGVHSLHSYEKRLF
ATR, sequence (Q13535 whole entry): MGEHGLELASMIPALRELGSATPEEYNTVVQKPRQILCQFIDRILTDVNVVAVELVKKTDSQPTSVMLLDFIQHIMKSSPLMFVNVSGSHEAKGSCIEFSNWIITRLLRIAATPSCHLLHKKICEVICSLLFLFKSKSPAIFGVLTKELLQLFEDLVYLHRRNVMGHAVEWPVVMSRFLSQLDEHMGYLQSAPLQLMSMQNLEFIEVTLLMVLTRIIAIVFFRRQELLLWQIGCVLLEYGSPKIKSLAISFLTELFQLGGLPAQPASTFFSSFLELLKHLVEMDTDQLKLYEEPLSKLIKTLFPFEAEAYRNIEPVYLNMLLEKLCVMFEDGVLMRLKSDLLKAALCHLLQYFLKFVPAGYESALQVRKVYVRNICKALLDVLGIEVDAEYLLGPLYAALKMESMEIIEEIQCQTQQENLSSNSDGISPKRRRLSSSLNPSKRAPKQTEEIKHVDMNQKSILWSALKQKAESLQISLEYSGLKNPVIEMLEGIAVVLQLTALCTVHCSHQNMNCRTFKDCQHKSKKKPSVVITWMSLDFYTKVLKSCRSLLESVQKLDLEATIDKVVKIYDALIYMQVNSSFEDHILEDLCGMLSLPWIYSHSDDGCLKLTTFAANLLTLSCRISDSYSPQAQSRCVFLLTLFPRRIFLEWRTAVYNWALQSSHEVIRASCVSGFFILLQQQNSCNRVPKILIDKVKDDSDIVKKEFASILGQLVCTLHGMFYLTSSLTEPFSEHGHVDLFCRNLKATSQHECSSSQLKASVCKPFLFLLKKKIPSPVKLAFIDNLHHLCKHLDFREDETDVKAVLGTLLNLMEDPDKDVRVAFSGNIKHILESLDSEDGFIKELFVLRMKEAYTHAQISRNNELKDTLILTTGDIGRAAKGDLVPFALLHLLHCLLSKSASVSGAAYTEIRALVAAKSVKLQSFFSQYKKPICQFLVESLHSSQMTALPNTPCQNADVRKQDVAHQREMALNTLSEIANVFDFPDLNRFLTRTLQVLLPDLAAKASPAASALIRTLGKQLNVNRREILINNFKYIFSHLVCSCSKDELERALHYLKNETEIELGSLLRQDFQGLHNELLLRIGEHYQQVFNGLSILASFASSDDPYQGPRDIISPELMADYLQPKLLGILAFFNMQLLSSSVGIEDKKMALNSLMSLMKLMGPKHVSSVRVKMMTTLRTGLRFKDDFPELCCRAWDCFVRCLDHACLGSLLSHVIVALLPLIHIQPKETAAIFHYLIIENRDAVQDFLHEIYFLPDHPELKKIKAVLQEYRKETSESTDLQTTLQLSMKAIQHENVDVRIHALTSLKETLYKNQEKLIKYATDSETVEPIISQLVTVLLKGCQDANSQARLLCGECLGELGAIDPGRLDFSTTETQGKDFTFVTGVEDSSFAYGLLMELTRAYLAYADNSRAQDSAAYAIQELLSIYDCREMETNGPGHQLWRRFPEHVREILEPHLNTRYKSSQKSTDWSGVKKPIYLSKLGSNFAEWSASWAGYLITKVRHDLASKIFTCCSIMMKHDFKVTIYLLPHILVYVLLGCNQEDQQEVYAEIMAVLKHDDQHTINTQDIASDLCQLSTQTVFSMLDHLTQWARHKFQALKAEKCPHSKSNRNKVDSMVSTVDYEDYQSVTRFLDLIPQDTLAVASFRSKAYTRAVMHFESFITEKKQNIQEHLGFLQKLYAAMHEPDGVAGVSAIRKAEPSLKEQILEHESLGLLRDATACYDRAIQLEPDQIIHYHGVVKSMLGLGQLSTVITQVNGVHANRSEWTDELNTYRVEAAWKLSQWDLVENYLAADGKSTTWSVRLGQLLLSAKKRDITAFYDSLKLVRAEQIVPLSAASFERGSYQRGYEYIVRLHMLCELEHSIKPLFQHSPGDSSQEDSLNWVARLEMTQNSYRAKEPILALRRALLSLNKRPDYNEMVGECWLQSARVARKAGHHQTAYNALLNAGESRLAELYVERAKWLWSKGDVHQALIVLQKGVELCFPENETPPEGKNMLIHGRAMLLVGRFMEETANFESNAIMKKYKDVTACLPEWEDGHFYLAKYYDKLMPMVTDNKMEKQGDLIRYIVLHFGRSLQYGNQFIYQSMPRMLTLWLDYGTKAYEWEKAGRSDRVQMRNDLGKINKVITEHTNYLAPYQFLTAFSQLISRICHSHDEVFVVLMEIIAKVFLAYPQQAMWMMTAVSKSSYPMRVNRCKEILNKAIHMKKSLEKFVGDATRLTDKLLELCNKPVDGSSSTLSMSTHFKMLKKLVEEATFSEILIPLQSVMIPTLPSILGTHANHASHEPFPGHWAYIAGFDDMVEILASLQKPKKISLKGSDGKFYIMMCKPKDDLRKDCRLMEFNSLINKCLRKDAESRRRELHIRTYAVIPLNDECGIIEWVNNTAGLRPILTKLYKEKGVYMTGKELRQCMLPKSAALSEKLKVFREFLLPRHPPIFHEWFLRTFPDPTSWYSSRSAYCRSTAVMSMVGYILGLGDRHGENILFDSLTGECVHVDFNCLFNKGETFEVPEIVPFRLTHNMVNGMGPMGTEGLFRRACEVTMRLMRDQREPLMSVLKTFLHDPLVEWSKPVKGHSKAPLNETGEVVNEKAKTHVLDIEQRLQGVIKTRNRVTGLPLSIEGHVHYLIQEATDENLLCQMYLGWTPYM
ATR, sequence (Q8WXE1 whole entry partner): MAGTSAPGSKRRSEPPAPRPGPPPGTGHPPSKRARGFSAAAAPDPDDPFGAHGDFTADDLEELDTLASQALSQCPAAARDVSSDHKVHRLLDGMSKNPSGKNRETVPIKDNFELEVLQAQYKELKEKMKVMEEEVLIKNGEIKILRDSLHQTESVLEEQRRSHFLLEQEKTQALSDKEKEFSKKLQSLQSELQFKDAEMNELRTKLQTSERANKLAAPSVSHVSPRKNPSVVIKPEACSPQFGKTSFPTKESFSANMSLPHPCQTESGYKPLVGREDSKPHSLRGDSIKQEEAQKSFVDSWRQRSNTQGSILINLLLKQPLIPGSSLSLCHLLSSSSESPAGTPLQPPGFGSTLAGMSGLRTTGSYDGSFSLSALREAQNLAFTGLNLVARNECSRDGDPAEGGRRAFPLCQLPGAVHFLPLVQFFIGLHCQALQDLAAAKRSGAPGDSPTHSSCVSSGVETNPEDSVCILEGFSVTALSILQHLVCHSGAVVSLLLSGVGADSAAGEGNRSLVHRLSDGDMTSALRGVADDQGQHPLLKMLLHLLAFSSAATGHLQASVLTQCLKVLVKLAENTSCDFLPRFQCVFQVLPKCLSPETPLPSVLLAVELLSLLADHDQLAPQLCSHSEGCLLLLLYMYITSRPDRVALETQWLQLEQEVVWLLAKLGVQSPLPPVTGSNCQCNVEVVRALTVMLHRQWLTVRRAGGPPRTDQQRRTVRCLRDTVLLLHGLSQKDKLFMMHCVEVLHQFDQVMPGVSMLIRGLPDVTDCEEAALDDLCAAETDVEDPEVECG

With “MORAb-003: anti-folate receptor alpha antibody”, the “clinical results in ovarian cancer patients” value (shortened to “clinical results”) in the test with ovarian cancer is “only conferred limited clinical benefit to ovarian cancer patients”.
As to ipilimumab, the “clinical results” value with ovarian cancer was “significant anti-tumor effects in ovarian cancer patients”.
Turning to `CC(/C=C/C(=O)NO)=C\[C@@H](C)C(=O)c1ccc(N(C)C)cc1` [trichostatin A], the lung tumorigenesis result with lung tumorigenesis is given as “significantly inhibited lung tumorigenesis”.
As for `O=C1O/C(=C/Br)CCC1c1cccc2ccccc12` (stereo not shown) [Bromoenol lactone], the “apoptosis and cell cycle of ovarian cancer cells” value at PLA2G6 is “increase in apoptosis in ovarian cancer cells as well as inducing cell cycle arrest in S- and G2/M-phases”.
Consider bevacizumab, for which the “clinical results” value in the test on ovarian cancer was “appears to be advantageous”.
Regarding oregovomab, the “clinical results” value in the test with ovarian cancer is “promising results in phase II and III studies”.
For the compound catumaxomab, the “clinical results” value with ovarian cancer is “promising results in phase II and III studies”.
In the case of `NC(=O)c1cccc([C@@H]2O[C@H](CO)[C@@H](O)[C@H]2O)c1` [benzamide riboside], on IMPDH2, the clinical response entry was “good clinical response”.
On to `NC(=O)c1csc([C@@H]2O[C@H](CO)[C@@H](O)[C@H]2O)n1` [tiazofurin], for which the clinical response result at IMPDH2 is reported as “good clinical response”.
Turning to `CN1CC[C@H](c2c(O)cc(O)c3c(=O)cc(-c4ccccc4Cl)oc23)[C@H](O)C1` [Flavopiridol], the “human tumor cell proliferation” value with human tumor cell lines was “inhibition of human tumor cell proliferation”.
For `CCCC(CCC)C(=O)O` [valproic acid], on ALDH5A1, the “net proliferation of breast ductal carcinoma models” value is “inhibit net proliferation”.
For the compound “443 (GLWEIENNPTV; listed as Homo sapiens) [compound 443]”, in the test on CD8+ T cells, the “Wells positive [%]” value was “″+″ (<20% = +)”. The Peptide exchange entry with HLA-A*02:01 is reported as “″+++″ (≥50% = +++)”.
As for “143 (LLLDITPEI; listed as Homo sapiens) [compound 143]”, the “Wells positive [%]” value with CD8+ T cells is “″+″ (<20% = +)”. The Peptide exchange entry with HLA-A*02:01 is given as “″++++″ (≥75% = ++++)”.
Consider `CNCc1ccc(-c2cc(-c3nc(-c4ccc(S(=O)(=O)C(C)C)cc4)cnc3N)on2)cc1` [VE-822], for which, at ATR, the radiosensitization and chemosensitization entry is “radiosensitize and chemosensitize pancreatic cancer cells in vitro and pancreatic tumor xenografts in vivo”.
Regarding “79 (SLFIGEKAVLL; listed as Homo sapiens) [compound 79]”, the “Wells positive [%]” value in the test with CD8+ T cells is on record as “″+″ (<20% = +)”. Also, the Peptide exchange result with HLA-A*02:01 is given as “″+++″ (≥50% = +++)”.
As to “48 (ALAELYEDEV; listed as Homo sapiens) [compound 48]”, the “Wells positive [%]” value in the test with CD8+ T cells is “″+″ (<20% = +)”. In addition, the Peptide exchange entry with HLA-A*02:01 is “″+++″ (≥50% = +++)”.
For “319 (SLEPQIQPV; listed as Homo sapiens) [compound 319]” the same measures were “″+″ (<20% = +)” and “″++″ (≥20% = ++)”.
In the same order, the values of “36 (YVLEDLEVTV; listed as Homo sapiens) [compound 36]” are “″+″ (<20% = +)” and “″++″ (≥20% = ++)”.
For “166 (YLNHLEPPV; listed as Homo sapiens) [compound 166]” the same measures were “″++++″ (> = 70% = ++++)” and “″+++″ (≥50% = +++)”.
Regarding “283 (ALYIGDGYVIHLA; listed as Homo sapiens) [compound 283]”, the wells result in the test with CD8+ T cells (HLA class I peptides, positive wells) is on record as “+ (<20% = +)”. Further, the Peptide exchange entry in the test with HLA-A*02:01 is reported as “″+++″ (≥50% = +++)”.
For `Cc1ccc(S(=O)(=O)c2ccc([N+](=O)[O-])o2)cc1` [NSC697923], in the test with UBE2V1, the “proliferation and survival of diffuse large B-cell lymphoma cells” value was “inhibit proliferation and survival of diffuse large B-cell lymphoma cells”.
Regarding “8 (FTLGNVVGMYL; listed as Homo sapiens) [compound 8]”, the “Wells positive [%]” value with CD8+ T cells is on record as “″+″ (<20% = +)”. Besides, the Peptide exchange result in the test with HLA-A*02:01 is listed as “″++++″ (≥75% = ++++)”.

The values are drawn from patent US10472401B2, “Peptides and combination of peptides for use in immunotherapy against ovarian cancer and other cancers” (immatics biotechnologies GmbH, priority 2015, dated 2019).
